Legend:
[1] = Viscosity of the synthesized amphipathic compound; assay type: physicochemical; conditions: at shear velocity of 92 l/s
Procedure: Specifically, the amphipathic compound represented by the general formula (I) has a viscosity of preferably 15.0 Pa-s or less, more preferably 11.0 Pa-s or less, further preferably 6.0 Pa-s or less, by itself, as measured at 25° C. This viscosity can be measured using, for example, a viscosity and viscoelasticity measuring apparatus (Gemini II, Malvern Instruments Ltd.) at a temperature of 25° C.
^1H-NMR and viscosity of the obtained compound were measured.

[2] = cited from earlier work

| Viscosity [1] [Pa·s] | SMILES | pKa [2] |
| --- | --- | --- |
| 0.26 | CC(C)=CCC/C(C)=C/CCC(C)=CCCC(=O)OCC(O)CO (racemic) [Example 3, Mono-O-(5,9,13-trimethyltetradeca-4,8,12-trienoyl)glycerol] |  |
| 0.37 | CC(C)=CCC/C(C)=C/CC/C(C)=C/CCC(C)=CCCC(=O)OCC(O)CO (racemic) [Example 6, Mono-O-(5,9,13,17-tetramethyloctadeca-4,8,12,16-tetraenoyl)glycerol] |  |
| 0.48 | CC(=CCCC(=O)OCC(O)CO)CCCC(C)CCCC(C)C (stereo not shown) [Example 1, Mono-O-(5,9,13-trimethyltetradec-4-enoyl)glycerol] |  |
|  | CC1(C)O[C@@H]2C[C@H]3[C@@H]4CCC5=CC(=O)C=C[C@]5(C)[C@@]4(F)[C@@H](O)C[C@]3(C)[C@]2(C(=O)CO)O1 [triamcinolone acetonide] | 13.37 |

Source: US12296014B2, “External preparation comprising non-lamellar liquid crystal-forming lipid” (FARNEX INCORPORATED, priority 2018, dated 2025)
